Measurements taken from ChEMBL document CHEMBL5046296 (J Med Chem, 2022).

Experiments:
[1] = target: T1, AP2-associated protein kinase 1 (Homo sapiens, UniProt Q2M2I8); assay: Inhibition of GST-Xa tagged human AAK1 (30 to 330 residues) expresssed in bacteria using (5-FAM)-Aha-KEEQSQITSQVTGQIGWR-NH2 peptide as substrate incubated for 3 hrs in presence of ATP by electrophoretic analysis
[2] = Displacement of 3H-LP-927443 from AAK1 in mouse brain membrane homogenate assessed as inhibition constant at 1 uM incubated for 1 hr by liquid scintillation counter analysis; assay type: cell membranes
[3] = target: T1, AP2-associated protein kinase 1; assay: Inhibition of […] in HEK293F cells assessed as reduction in phospho mu2 formation incubated for 3 hrs by Western blot analysis; assay type: cell-based
Cytochrome P450 = Cytochrome P450 (Homo sapiens, UniProt P04798+P05177+P05181+P08684+P10632+P10635+P11509+P11712+P13584+P20813+P20815+P20853+P24462+P24903+P33260+P33261+P51589+P78329+P98187+Q02928+Q08477+Q16678+Q16696+Q5TCH4+Q6VVX0+Q7Z449+Q8TAV3+Q96SQ9+Q9HB55); assay: Metabolic stability in human liver microsomes assessed as CYP450-mediated metabolism by measuring parent compound remaining at 0.5 uM incubated for 10 mins in presence of NADPH by LC-MS/MS analysis; assay type: ADME; conditions: read-out: Stability
[4] = Metabolic stability in rat liver microsomes assessed as CYP450-mediated metabolism by measuring parent compound remaining at 0.5 uM incubated for 10 mins in presence of NADPH by LC-MS/MS analysis; assay type: ADME; conditions: read-out: Stability
[5] = Metabolic stability in mouse liver microsomes assessed as CYP450-mediated metabolism by measuring parent compound remaining at 0.5 uM incubated for 10 mins in presence of NADPH by LC-MS/MS analysis; assay type: ADME; conditions: read-out: Stability
Aorta = assay: Cardiotoxicity in rat aortic ring assessed as relaxation of phenylephrine induced aortic ring contraction at 10 uM incubated for 1 hr; assay type: toxicity, tissue-based; set-up: scale not given: the % may be the effect or the level left
Cytochrome P450 3A4 = Cytochrome P450 3A4 (Homo sapiens, UniProt P08684); assay: Inhibition of CYP3A4 (unknown origin) using BFC as substrate; assay type: ADME
[6] = Inhibition of PCKA (unknown origin); set-up: species or system Homo sapiens
[7] = Protein binding in human plasma assessed as unbound fraction at 10 uM measured after 5 hrs by LC-MS/MS analysis; assay type: ADME, cell-free
[8] = Protein binding in rat plasma assessed as unbound fraction at 10 uM measured after 5 hrs by LC-MS/MS analysis; assay type: ADME, cell-free
[9] = Protein binding in mouse plasma assessed as unbound fraction at 10 uM measured after 5 hrs by LC-MS/MS analysis; assay type: ADME, cell-free
[10] = Permeability of compound at pH 5.5 measured after 4 hrs by PAMPA assay; assay type: ADME; conditions: read-out: permeability
[11] = Permeability of compound at pH 7.4 measured after 4 hrs by PAMPA assay; assay type: ADME; conditions: read-out: permeability
[12] = Permeability across apical to basolateral side in human Caco-2 cells at 3 uM measured after 2 hrs by LC-MS/MS analysis; assay type: ADME, cell-based; conditions: read-out: permeability
[13] = Permeability across basolateral to apical side in human Caco-2 cells at 3 uM measured after 2 hrs by LC-MS/MS analysis; assay type: ADME, cell-based; conditions: read-out: permeability
[14] = target: BMP-2-inducible protein kinase (Homo sapiens, UniProt Q9NSY1); assay: Inhibition of BIKE (unknown origin)
[15] = target: Cyclin-G-associated kinase (Homo sapiens, UniProt O14976); assay: Inhibition of GAK (unknown origin)
[16] = target: Citron Rho-interacting kinase (Homo sapiens, UniProt O14578); assay: Inhibition of CRIK (unknown origin)
[17] = target: MAP kinase-interacting serine/threonine-protein kinase 1 (Homo sapiens, UniProt Q9BUB5); assay: Inhibition of MNK1 (unknown origin)
[18] = target: cGMP-dependent protein kinase 2 (Homo sapiens, UniProt Q13237); assay: Inhibition of PKG2 (unknown origin)
[19] = target: Serine/threonine-protein kinase N2 (Homo sapiens, UniProt Q16513); assay: Inhibition of PRK2 (unknown origin)
[20] = target: Rho-associated protein kinase 2 (Homo sapiens, UniProt O75116); assay: Inhibition of ROCK2 (unknown origin)
[21] = Toxicity in naive Sprague-Dawley rat assessed as motor impairment at 100 mg/kg, po measured after 5 hrs by rotarod test; assay type: organism-based; conditions: in vivo

Chain of Cytochrome P450 3A4 (P08684 whole entry): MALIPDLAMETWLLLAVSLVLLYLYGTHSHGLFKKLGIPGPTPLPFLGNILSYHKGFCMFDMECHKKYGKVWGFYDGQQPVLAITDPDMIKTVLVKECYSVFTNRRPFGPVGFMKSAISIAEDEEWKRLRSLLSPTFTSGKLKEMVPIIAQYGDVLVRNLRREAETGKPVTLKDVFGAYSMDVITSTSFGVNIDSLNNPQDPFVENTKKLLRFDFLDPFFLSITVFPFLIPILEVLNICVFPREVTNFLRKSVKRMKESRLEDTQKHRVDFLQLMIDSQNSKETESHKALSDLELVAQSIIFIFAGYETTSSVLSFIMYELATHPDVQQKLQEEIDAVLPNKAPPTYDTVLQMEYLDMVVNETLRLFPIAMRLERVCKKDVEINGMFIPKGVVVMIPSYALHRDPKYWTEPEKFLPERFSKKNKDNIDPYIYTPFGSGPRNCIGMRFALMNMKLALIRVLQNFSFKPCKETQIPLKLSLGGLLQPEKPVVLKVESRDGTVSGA
T1 sequence (Q2M2I8 whole entry, the tested form may be a part): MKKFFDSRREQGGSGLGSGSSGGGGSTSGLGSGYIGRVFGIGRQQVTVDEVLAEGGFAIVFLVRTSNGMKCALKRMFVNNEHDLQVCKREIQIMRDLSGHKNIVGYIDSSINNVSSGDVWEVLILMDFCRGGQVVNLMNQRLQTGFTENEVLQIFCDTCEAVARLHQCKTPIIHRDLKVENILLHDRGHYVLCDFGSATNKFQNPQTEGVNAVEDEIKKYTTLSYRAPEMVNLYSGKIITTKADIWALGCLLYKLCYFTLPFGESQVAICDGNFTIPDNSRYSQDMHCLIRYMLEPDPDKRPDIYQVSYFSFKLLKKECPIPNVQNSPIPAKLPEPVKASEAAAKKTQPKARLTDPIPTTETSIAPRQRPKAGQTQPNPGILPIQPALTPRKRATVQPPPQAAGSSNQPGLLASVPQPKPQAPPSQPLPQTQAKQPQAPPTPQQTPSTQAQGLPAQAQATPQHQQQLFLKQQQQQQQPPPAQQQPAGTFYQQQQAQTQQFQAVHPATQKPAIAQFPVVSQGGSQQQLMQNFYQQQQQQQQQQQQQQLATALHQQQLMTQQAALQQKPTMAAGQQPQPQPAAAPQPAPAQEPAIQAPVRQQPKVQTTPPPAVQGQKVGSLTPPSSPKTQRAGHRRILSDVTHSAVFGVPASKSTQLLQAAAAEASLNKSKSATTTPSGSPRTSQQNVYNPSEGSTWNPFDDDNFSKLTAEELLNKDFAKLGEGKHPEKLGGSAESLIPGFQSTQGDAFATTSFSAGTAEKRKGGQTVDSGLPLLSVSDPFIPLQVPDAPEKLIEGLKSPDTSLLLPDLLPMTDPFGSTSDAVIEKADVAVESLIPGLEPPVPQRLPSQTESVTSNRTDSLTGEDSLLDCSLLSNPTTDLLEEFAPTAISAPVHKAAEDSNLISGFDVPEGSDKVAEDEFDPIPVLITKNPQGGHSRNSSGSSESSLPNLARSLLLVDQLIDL
Chain of Rho-associated protein kinase 2 (O75116 whole entry): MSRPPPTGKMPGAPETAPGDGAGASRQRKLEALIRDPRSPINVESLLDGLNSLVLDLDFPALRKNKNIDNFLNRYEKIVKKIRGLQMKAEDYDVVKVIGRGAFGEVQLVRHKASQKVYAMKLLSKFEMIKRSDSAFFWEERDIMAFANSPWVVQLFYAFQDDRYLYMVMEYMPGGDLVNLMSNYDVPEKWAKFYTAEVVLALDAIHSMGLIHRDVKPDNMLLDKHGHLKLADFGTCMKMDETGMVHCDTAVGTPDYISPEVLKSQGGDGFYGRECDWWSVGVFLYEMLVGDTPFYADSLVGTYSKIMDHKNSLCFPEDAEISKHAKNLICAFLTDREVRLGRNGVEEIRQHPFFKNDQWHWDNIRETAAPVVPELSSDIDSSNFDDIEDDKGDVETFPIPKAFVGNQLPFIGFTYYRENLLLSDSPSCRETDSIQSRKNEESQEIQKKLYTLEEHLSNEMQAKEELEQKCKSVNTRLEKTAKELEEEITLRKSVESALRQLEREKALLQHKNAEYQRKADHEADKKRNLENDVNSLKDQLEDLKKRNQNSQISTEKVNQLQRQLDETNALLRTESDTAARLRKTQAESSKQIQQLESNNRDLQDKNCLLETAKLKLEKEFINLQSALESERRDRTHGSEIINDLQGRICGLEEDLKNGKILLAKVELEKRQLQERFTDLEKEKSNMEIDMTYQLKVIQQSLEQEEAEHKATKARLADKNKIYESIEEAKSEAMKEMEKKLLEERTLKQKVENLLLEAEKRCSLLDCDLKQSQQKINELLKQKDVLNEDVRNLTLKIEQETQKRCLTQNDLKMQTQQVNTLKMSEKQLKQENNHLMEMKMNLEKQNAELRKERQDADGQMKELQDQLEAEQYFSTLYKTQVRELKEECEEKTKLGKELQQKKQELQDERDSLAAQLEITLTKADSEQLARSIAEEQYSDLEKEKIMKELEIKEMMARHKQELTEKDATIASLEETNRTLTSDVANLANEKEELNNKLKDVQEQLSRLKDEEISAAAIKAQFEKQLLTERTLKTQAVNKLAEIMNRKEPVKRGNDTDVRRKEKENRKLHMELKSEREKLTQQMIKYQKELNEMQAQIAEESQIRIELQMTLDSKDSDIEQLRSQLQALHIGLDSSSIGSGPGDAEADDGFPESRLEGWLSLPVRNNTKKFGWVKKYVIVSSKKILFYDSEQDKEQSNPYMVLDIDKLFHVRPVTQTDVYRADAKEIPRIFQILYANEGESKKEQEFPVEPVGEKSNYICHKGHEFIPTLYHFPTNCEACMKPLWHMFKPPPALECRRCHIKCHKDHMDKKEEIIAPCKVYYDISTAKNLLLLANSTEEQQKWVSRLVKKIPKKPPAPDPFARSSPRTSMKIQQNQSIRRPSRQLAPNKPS
Chain of cGMP-dependent protein kinase 2 (Q13237 whole entry): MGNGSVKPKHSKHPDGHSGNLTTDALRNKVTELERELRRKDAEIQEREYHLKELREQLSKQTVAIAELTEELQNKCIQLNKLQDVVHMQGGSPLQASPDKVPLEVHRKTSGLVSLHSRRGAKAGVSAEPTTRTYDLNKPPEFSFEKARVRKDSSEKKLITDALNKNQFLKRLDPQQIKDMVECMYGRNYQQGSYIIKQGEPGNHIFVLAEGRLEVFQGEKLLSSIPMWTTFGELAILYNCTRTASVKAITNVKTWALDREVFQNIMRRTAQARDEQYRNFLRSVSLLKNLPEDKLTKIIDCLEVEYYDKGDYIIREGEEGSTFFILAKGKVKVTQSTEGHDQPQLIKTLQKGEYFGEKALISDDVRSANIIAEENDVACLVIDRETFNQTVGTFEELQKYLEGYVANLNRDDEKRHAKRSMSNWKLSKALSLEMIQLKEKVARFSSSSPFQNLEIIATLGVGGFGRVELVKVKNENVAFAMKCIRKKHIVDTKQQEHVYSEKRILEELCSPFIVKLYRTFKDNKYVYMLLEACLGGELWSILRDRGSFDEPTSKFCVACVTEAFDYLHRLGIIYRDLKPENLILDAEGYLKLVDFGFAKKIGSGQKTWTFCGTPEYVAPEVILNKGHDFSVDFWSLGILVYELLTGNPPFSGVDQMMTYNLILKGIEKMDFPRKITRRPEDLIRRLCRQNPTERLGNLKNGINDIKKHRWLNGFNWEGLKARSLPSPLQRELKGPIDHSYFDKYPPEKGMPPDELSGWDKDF
Chain of Serine/threonine-protein kinase N2 (Q16513 whole entry): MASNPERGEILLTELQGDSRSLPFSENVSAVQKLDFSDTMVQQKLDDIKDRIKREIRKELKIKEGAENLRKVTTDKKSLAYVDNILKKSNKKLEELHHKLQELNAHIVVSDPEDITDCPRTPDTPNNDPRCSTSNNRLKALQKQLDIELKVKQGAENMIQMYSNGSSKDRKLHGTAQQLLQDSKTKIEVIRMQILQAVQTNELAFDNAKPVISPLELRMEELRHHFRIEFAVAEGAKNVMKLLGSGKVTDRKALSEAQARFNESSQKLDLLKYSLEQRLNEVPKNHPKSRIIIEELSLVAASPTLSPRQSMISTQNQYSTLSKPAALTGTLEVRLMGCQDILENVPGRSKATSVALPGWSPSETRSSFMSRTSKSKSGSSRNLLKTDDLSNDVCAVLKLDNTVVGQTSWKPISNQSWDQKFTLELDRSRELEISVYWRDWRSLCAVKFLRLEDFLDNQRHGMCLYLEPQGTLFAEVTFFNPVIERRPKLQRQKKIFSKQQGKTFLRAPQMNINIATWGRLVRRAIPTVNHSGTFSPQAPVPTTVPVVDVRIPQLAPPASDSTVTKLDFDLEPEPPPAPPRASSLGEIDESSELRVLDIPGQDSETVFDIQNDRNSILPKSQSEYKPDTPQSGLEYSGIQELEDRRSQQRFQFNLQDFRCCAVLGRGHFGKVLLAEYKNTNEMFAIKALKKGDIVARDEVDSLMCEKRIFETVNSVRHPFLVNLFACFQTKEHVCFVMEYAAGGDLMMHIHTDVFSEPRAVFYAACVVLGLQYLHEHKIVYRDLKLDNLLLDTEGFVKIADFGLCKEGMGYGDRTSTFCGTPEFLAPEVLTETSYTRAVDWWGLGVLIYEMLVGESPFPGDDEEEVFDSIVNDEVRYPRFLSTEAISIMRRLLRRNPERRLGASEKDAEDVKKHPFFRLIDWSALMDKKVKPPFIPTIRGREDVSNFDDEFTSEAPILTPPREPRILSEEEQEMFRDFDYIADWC
Chain of MAP kinase-interacting serine/threonine-protein kinase 1 (Q9BUB5 whole entry): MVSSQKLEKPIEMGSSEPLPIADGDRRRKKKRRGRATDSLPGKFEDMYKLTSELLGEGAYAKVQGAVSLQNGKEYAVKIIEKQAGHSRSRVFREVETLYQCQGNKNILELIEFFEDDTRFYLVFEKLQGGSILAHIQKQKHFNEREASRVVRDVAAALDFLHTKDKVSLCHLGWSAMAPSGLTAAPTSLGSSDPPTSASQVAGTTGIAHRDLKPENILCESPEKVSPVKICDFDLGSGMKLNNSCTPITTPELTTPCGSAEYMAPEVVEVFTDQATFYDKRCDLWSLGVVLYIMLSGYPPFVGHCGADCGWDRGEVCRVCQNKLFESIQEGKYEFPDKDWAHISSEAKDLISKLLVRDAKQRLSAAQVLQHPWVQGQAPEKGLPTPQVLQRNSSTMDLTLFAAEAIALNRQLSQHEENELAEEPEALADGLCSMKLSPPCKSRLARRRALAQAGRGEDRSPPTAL

| Structure (SMILES) | IC50 [1] [nM] | Ki [2] [nM] | IC50 [3] [nM] | remaining at 10 min, 0.5 µM (Cytochrome P450) [%] | remaining at 10 min, 0.5 µM [4] [%] | remaining at 10 min, 0.5 µM [5] [%] | Activity (Aorta) [%] | IC50 (Cytochrome P450 3A4) [nM] | other results |
| --- | --- | --- | --- | --- | --- | --- | --- | --- | --- |
| Cc1cc(-c2ccc(OC[C@@](C)(N)CC(C)C)c(C(F)F)n2)ccn1 | 2.9 | 1.1 | 11 | 81 | 82 | 71 | 26 | – | – |
| Cc1cc(-c2ccc(OC[C@@H](N)CC(C)C)c(C#N)c2)ccn1 | 0.8 | 0.71 | 89 | – | – | – | – | 2400 | – |
| Cc1cc(-c2ccc(OC[C@@](C)(N)CC(C)C)c(C#N)c2)ccn1 | – | – | – | – | – | – | – | > 20000 | – |
| CC(C)C[C@](C)(N)COc1ccc(-c2ccnc(Cl)c2)nc1C(F)F | 3.9 | – | – | 97 | 87 | 85 | 59 | – | – |
| CC(C)C[C@](C)(N)COc1ccc(-c2ccnc(F)c2)cc1C(F)(F)F | – | – | – | – | – | – | – | > 20000 | – |
| CC(C)C[C@](C)(N)COc1ccc(-c2ccnc(C(F)F)c2)cc1C(F)F | 0.4 | 0.04 | 0.9 | 96 | 83 | – | 84 | 16000 | IC50 [6]: 580 nM; fraction unbound at 5 h, 10 µM [7]: 0.046; fraction unbound at 5 h, 10 µM [8]: 0.045; fraction unbound at 5 h, 10 µM [9]: 0.018; Papp at 4 h [10]: 99.9 ×10⁻⁶ cm/s; Papp at 4 h [11]: 42.7 ×10⁻⁶ cm/s; Papp A→B at 2 h, 3 µM [12]: 10.8 ×10⁻⁶ cm/s; Papp B→A at 2 h, 3 µM [13]: 6.2 ×10⁻⁶ cm/s; IC50 [14]: 280 nM; IC50 [15]: 73 nM; IC50 [16]: 56 nM; IC50 [17]: 180 nM; IC50 [18]: 420 nM; IC50 [19]: 440 nM; IC50 [20]: 420 nM |
| Cc1cc(-c2ccc(OC[C@@](C)(N)CC(C)C)c(C)n2)ccn1 | 36 | 7.2 | – | 95 | 83 | 78 | 1 | – | – |
| Cc1cc(-c2ccc(OC[C@@](C)(N)CC(C)C)c(C3CC3)c2)ccn1 | – | – | – | – | – | – | – | > 20000 | – |
| COc1cc(-c2ccc(OC[C@@H](N)CC(C)C)c(C#N)c2)ccn1 | – | – | – | – | – | – | – | 540 | – |
| Cc1cc(-c2ccc(OC[C@@](C)(N)CC(C)C)c(C(F)F)c2)ccn1 | 0.4 | 0.08 | 0.8 | 74 | 81 | 69 | 57 | > 20000 | fraction unbound at 5 h, 10 µM [7]: 0.037; fraction unbound at 5 h, 10 µM [8]: 0.031; fraction unbound at 5 h, 10 µM [9]: 0.02; Papp at 4 h [10]: 69.7 ×10⁻⁶ cm/s; Papp at 4 h [11]: 31.9 ×10⁻⁶ cm/s; Papp A→B at 2 h, 3 µM [12]: 9.5 ×10⁻⁶ cm/s; Papp B→A at 2 h, 3 µM [13]: 6 ×10⁻⁶ cm/s |
| CC(C)C[C@](C)(N)COc1ccc(-c2ccnc(C(F)F)c2)cc1C1CC1 | – | – | – | – | – | – | – | > 20000 | Papp at 4 h [10]: 78.4 ×10⁻⁶ cm/s |
| NCC1(CC(=O)O)CCCCC1 [GABAPENTIN] | – | – | – | – | – | – | – | – | Activity [21]: Non-Toxic |
